From PMC6429356, “Development of Anthraquinone Analogues as Phosphoglycerate Mutase 1 Inhibitors” (Molecules, 2019)
Entries after “also recorded” stand apart in the source; their conditions may differ. Like-named read-outs stand apart in the source and are kept apart here.

What was measured:
[1] = target: T1, PGAM1 (Homo sapiens, UniProt P18669); design: method as in PMID 16200062, PMID 28611670, PMID 23153533, PMID 29530347; conditions: Figure 1; read-out: PGAM1 IC50 (reported inhibitors); cited from earlier work
T1 construct: His6 (C); made in house
T1 sequence (P18669 whole entry): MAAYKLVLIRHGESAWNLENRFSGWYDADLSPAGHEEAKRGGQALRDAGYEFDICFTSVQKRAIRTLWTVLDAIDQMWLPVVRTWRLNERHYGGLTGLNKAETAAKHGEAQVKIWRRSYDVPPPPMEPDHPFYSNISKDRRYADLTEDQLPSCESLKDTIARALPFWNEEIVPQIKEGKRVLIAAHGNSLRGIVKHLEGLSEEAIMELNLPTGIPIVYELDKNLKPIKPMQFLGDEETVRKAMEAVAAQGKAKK

[2] = test system: MDA-MB-231 cells; design: method as in PMID 16200062; conditions: Figure 1; read-out: MDA-MB-231 cells IC50 (reported inhibitor); cited from earlier work
[3] = test system: H1299 cells; assay: Cell viability assay (MTT, 72 h), H1299; type: cell-based; conditions: Homo sapiens, NCI-H1299, proliferation, mean ± s.d. (n = 3)
Method: (§1) The H1299 cell line was obtained from Guangzhou Jenniobio Biotechnology Co., Ltd. (Guangzhou, China), PC9 and A549 cells were gifted from Deng Jiong’s lab in the School of Medicine, Shanghai Jiao Tong University, Shanghai, China). H1299, PC9 cells were cultured in RPMI-1640 medium and A549 cells were cultured in F-12K medium containing 10% fetal bovine serum (FBS), 100 units/mL of Penicillin and 100 μg/mL Streptomycin. In cell viability assays, 2000 H1299 cells, A549 cells or 1000 PC9 cells per well were seeded in 96-well plate. After attachment for 24 h, the cells were treated with indicated inhibitor for 72 h. After incubation with 0.5 mg/mL methylthiazolyldiphenyl-tetrazolium bromide (MTT) for 4 h, cell viability was measured as the OD at 570 nm.

[4] = test system: A549 cells; assay: Cell viability assay (MTT, 72 h), A549; type: cell-based; conditions: Homo sapiens, proliferation, mean ± s.d. (n = 3)
Method: as §1

[5] = target: T1, PGAM1; assay: Substrate competitive assay with 3PG; type: biochemical
[6] = Solubility; type: physicochemical; conditions: remark in text, no method given
[7] = test system: enolase-pyruvate kinase-LDH; assay: Counter screening: control linked enzyme assay with 2PG; type: biochemical; conditions: 0.5 μM compound, pyruvate kinase M2, LDH without PGAM1, mean ± s.d. (n = 2)
Method: (§2) Firstly, 1 μL inhibitor in dimethyl sulfoxide (DMSO) incubated with 49 μL 4.6 nM recombinant PGAM1, then 50 μL enzyme mix containing 3 units/mL enolase (Sigma-Aldrich, Saint Louis, MO, USA), 3 units/mL recombinant pyruvate kinase M2 (Sigma-Aldrich), 0.6 units/mL recombinant lactatdehydrogenase (LDH, Sigma-Aldrich), 100 mM Tris-HCl, 100 mM KCl, 5 mM MgCl2, 1 mM adenosine diphosphate (ADP), 0.2 mM the reduced form of nicotinamide adenine dinucleotide (NADH) and 4 mM 3PG was added. PGAM1 activity was measured as the decrease in OD at 340 nm. In addition, we performed a counter screening in which 4mM 2PG was added to 50 μL reaction mix containing the indicated inhibitor, 3 units/mL enolase (Sigma-Aldrich), 3 units/mL recombinant pyruvate kinase M2 (Sigma-Aldrich), 0.6 units/mL recombinant LDH (Sigma-Aldrich), 100 mM Tris-HCl, 100 mM KCl, 5 mM MgCl2, 1 mM ADP and 0.2 mM NADH. The other three enzyme activity was measured as the decrease in OD at 340 nm.

[8] = test system: PC9 cells; assay: Cell viability assay (MTT, 72 h), PC9; type: cell-based; conditions: Homo sapiens, PC-9, proliferation, mean ± s.d. (n = 3)
Method: as §1

[9] = target: T1, PGAM1; assay: PGAM1 enzymatic assay (enolase-pyruvate kinase-LDH coupled, OD 340 nm); type: biochemical; conditions: optimized enzymatic assay; mean ± s.d. (n = 3)
Method: as §2

[10] = test system: PGAM1 mutations (F22A, R116H and R191H); assay: Inhibition of PGAM1 mutants compared with wild type; type: biochemical; conditions: 5 μM compound
Source text: To further understand the molecular mechanism of the anthraquinone derivatives interacting with PGAM1, we determined the X-ray structure of PGAM1 in complex with compound 9i at resolution of 1.98 Å (Table 5). Compound 9i occupied a novel allosteric site adjacent to substrate binding site with nice electron density (Figure 3A,B). The allosteric pocket was surrounded by the residues of F22, R90, K100, R116 and R191. In detail, the anthraquinone scaffold and sulfonamide of compound 9i interacted with the main chain carbonyl of K100 through water bridges (Figure 3C). In addition, a hydrophobic interaction was observed between F22 and chlorine-substituted phenyl ring of compound 9i (Figure 3C). […]
Firstly, 1 μL inhibitor in dimethyl sulfoxide (DMSO) incubated with 49 μL 4.6 nM recombinant PGAM1, then 50 μL enzyme mix containing 3 units/mL enolase (Sigma-Aldrich, Saint Louis, MO, USA), 3 units/mL recombinant pyruvate kinase M2 (Sigma-Aldrich), 0.6 units/mL recombinant lactatdehydrogenase (LDH, Sigma-Aldrich), 100 mM Tris-HCl, 100 mM KCl, 5 mM MgCl2, 1 mM adenosine diphosphate (ADP), 0.2 mM the reduced form of nicotinamide adenine dinucleotide (NADH) and 4 mM 3PG was added. PGAM1 activity was measured as the decrease in OD at 340 nm. […] The other three enzyme activity was measured as the decrease in OD at 340 nm. […]

[11] = test system: H1299 cells; design: method as in PMID 28611670, PMID 23153533, PMID 29530347; conditions: Figure 1; read-out: H1299 cells IC50 (reported inhibitors); cited from earlier work

| IC50 [3] [µM] | IC50 [4] [µM] | Inhibition in the Control Linked Enzyme Assay (0.5 μM) [7] [%] | IC50 [8] [µM] | IC50 [9] [µM] | SMILES | IC50 [11] [µM] | also measured |
| --- | --- | --- | --- | --- | --- | --- | --- |
| – | – | – | – | – | C#CCCCC(=O)OC(C)(C)C1CCC2(CO2)C(OC(=O)NC(Cc2c[nH]c3ccccc23)C(=O)OCc2ccccc2)C1 (centres unmarked) [MJE3] | – | IC50 [1]: 33 µM; IC50 [2]: 19 µM |
| 6.9 ± 1.2 | 12.7 ± 2.7 | −6.4 ± 5.0 | 13.8 ± 1 | 0.27 ± 0.04 | O=C1c2ccccc2C(=O)c2c1cc(NS(=O)(=O)c1ccc(Cl)cc1)c(O)c2O [Compound 9i, 4-Chloro-N-(3,4-dihydroxy-9,10-dioxo-9,10-dihydroanthracen-2-yl) benzenesulfonamide] | – | Mode of inhibition with respect to substrate 3PG [5]: noncompetitive inhibitor; also recorded: non-competitive; also recorded: noncompetitive binding; Solubility [6]: good solubility; Inhibition of PGAM1 mutations versus wild type [10]: failed to inhibit mutations of PGAM1 (F22A, R116H and R191H) as effectively as the wild type |
| – | – | – | – | – | O=C(O[C@@H]1Cc2c(O)cc(O)cc2O[C@@H]1c1cc(O)c(O)c(O)c1)c1cc(O)c(O)c(O)c1 [EGCG, (−)-epigallocatechin-3-gallate] | > 80 | – |
| 6.2 ± 1.2 | > 50 | 0.2 ± 1.7 | > 50 | 0.9 ± 0.26 | O=C1c2ccccc2C(=O)c2c1cc(NS(=O)(=O)c1c(Cl)cc(Cl)cc1Cl)c(O)c2O [Compound 9l, 2,4,6-Trichloro-N-(3,4-dihydroxy-9,10-dioxo-9,10-dihydroanthracen-2-yl) benzenesulfonamide] | – | – |
| – | – | – | – | – | O=C1c2ccccc2C(=O)c2c1cc(S(=O)(=O)Nc1ccc(C(F)(F)F)cc1)c(O)c2O [PGMI-004A] | 25.6 | – |
| 16.6 ± 1.8 | 8 ± 0.8 | 3.7 ± 1.8 | 10.2 ± 0.7 | 0.9 ± 0.07 | O=C1c2ccccc2C(=O)c2c1cc(NS(=O)(=O)c1ccc(OC(F)(F)F)cc1)c(O)c2O [Compound 9c, N-(3,4-Dihydroxy-9,10-dioxo-9,10-dihydroanthracen-2-yl)-4-(trifluoromethoxy) benzenesulfonamide] | – | – |
| – | – | – | – | – | O=c1c2c(O)cccc2oc2cc(NS(=O)(=O)c3ccc(N4CCCC4)cc3)c(O)c(O)c12 [Compound 12r] | 5 | – |
